Experiments:
[1] = system: HLA-A2.1 (HLA-A*0201) Tg mice, CD4-depleted splenocytes; type: cell-based, mouse
[2] = system: HLA-DR2 (DRB1*1501) Tg mice, CD8-depleted splenocytes; type: cell-based, mouse
[3] = target: HLA-A2.1 (HHD monochain) (human; murine); assay: cell-based or functional assay
[4] = target: HLA-DR2 (chimeric HLA-DRA1*0101/DRB1*1501 with I-E domains) (human; murine) (UniProt Q8BHN5); assay: cell-based or functional assay
UniProt Q8BHN5, sequence (Q8BHN5 whole entry, stated change not applied): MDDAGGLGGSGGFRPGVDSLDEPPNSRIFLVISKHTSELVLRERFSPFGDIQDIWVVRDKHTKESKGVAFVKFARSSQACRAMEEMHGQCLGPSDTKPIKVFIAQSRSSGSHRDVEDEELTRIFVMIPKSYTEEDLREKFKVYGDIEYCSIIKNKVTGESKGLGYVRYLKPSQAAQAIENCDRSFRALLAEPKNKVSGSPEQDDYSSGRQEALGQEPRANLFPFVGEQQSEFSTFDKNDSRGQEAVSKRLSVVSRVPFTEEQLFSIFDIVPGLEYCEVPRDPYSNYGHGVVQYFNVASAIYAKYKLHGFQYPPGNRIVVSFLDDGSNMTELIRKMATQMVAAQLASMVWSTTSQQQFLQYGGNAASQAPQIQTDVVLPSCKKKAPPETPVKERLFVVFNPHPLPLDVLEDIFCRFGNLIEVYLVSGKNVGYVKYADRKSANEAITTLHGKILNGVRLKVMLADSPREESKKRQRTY

ATPPGTSDPFPESNSPI [NS3 317-333]
T cell activation of HLA transgenic mice (SFC/10^6) IFN-γ ELISpot, A2 [1]: 151 ± 18 SFC/10^6

CYGGPWKLQHKWNGQDEV [NS3 78-95]
T cell activation of HLA transgenic mice (SFC/10^6) IFN-γ ELISpot, A2 [1]: 150 ± 17 SFC/10^6

DPFPESNSPISDLQTEI [NS3 324-340]
T cell activation of HLA transgenic mice (SFC/10^6) IFN-γ ELISpot, A2 [1]: 117 ± 20 SFC/10^6

ECHTCIYNMMGKREKK [NS5 448-463]
T cell activation of HLA transgenic mice (SFC/10^6) IFN-γ ELISpot, A2 [1]: 26 ± 7 SFC/10^6

EKVYTMDGEYRLRGEERK [NS3 515-532]
T cell activation of HLA transgenic mice (SFC/10^6) IFN-γ ELISpot, A2 [1]: 140 ± 24 SFC/10^6
T cell activation of HLA transgenic mice (SFC/10^6) IFN-γ ELISpot, DR2 [2]: 95 ± 27 SFC/10^6

EMGANFKASRVIDSRKSV [NS3 413-430]
T cell activation of HLA transgenic mice (SFC/10^6) IFN-γ ELISpot, A2 [1]: 130 ± 15 SFC/10^6

ERKNFLELLRTADLPVWL [NS3 530-547]
T cell activation of HLA transgenic mice (SFC/10^6) IFN-γ ELISpot, A2 [1]: 127 ± 10 SFC/10^6

EYRLRGEERKNFLELLR [NS3 523-539]
T cell activation of HLA transgenic mice (SFC/10^6) IFN-γ ELISpot, A2 [1]: 57 ± 11 SFC/10^6
T cell activation of HLA transgenic mice (SFC/10^6) IFN-γ ELISpot, DR2 [2]: 160 ± 48 SFC/10^6

GQDEVQMIVVEPGKNVK [NS3 91-107]
T cell activation of HLA transgenic mice (SFC/10^6) IFN-γ ELISpot, A2 [1]: 156 ± 11 SFC/10^6

GSVKEDRLCYGGPWKLQH [NS3 70-87]
T cell activation of HLA transgenic mice (SFC/10^6) IFN-γ ELISpot, A2 [1]: 174 ± 13 SFC/10^6

IRYQTSAVPREHNGNEIV [NS3 241-258]
T cell activation of HLA transgenic mice (SFC/10^6) IFN-γ ELISpot, A2 [1]: 127 ± 18 SFC/10^6

IVVEPGKNVKNVQTKPGV [NS3 98-115]
T cell activation of HLA transgenic mice (SFC/10^6) IFN-γ ELISpot, A2 [1]: 145 ± 25 SFC/10^6

KVELGEAAAIFMTATPPG [NS3 304-321]
T cell activation of HLA transgenic mice (SFC/10^6) IFN-γ ELISpot, A2 [1]: 94 ± 22 SFC/10^6

LQHKWNGQDEVQMIVV [NS3 85-100]
T cell activation of HLA transgenic mice (SFC/10^6) IFN-γ ELISpot, A2 [1]: 72 ± 9 SFC/10^6

LQTEIPDRAWNSGYEWI [NS3 336-352]
T cell activation of HLA transgenic mice (SFC/10^6) IFN-γ ELISpot, A2 [1]: 167 ± 35 SFC/10^6

LSTKAACPTMGEAHNDKR [E 68-85]
T cell activation of HLA transgenic mice (SFC/10^6) IFN-γ ELISpot, A2 [1]: 372 ± 242 SFC/10^6

MLRKKQITVLDLHPGAGK [NS3 183-200]
T cell activation of HLA transgenic mice (SFC/10^6) IFN-γ ELISpot, A2 [1]: 62 ± 24 SFC/10^6
T cell activation of HLA transgenic mice (SFC/10^6) IFN-γ ELISpot, DR2 [2]: 55 ± 2 SFC/10^6

PIVDKNGDVIGLYGNGVI [NS3 138-155]
T cell activation of HLA transgenic mice (SFC/10^6) IFN-γ ELISpot, A2 [1]: 159 ± 10 SFC/10^6

PQIIKEAINRRLRTAVLA [NS3 206-223]
T cell activation of HLA transgenic mice (SFC/10^6) IFN-γ ELISpot, A2 [1]: 108 ± 22 SFC/10^6
T cell activation of HLA transgenic mice (SFC/10^6) IFN-γ ELISpot, DR2 [2]: 323 ± 21 SFC/10^6

RAWNSGYEWITEYTGKTV [NS3 343-360]
T cell activation of HLA transgenic mice (SFC/10^6) IFN-γ ELISpot, A2 [1]: 55 ± 21 SFC/10^6

THTLWGDGILESDLIIPV [NS1 228-245]
T cell activation of HLA transgenic mice (SFC/10^6) IFN-γ ELISpot, A2 [1]: 84 ± 47 SFC/10^6

TLTHRLMSPHRVPNYNLF [NS3 265-282]
T cell activation of HLA transgenic mice (SFC/10^6) IFN-γ ELISpot, A2 [1]: 150 ± 30 SFC/10^6
T cell activation of HLA transgenic mice (SFC/10^6) IFN-γ ELISpot, DR2 [2]: 169 ± 16 SFC/10^6

TVWFVPSVKMGNEIALCL [NS3 359-376]
T cell activation of HLA transgenic mice (SFC/10^6) IFN-γ ELISpot, A2 [1]: 75 ± 44 SFC/10^6

VIGLYGNGVIMPNGSYI [NS3 146-162]
T cell activation of HLA transgenic mice (SFC/10^6) IFN-γ ELISpot, A2 [1]: 58 ± 38 SFC/10^6

VLAPTRVVAAEMAEALR [NS3 221-237]
T cell activation of HLA transgenic mice (SFC/10^6) IFN-γ ELISpot, A2 [1]: 26 ± 4 SFC/10^6

WNV NS3 515-532 peptide
IFN-γ ELISpot (SFC/10^6) [3]: 140 SFC/10^6
IFN-γ ELISpot (SFC/10^6) [4]: 95 SFC/10^6

WNV NS3 523-539 peptide
IFN-γ ELISpot (SFC/10^6) [3]: 57 SFC/10^6
IFN-γ ELISpot (SFC/10^6) [4]: 160 SFC/10^6

YISAIVQGERMDEPIPA [NS3 161-177]
T cell activation of HLA transgenic mice (SFC/10^6) IFN-γ ELISpot, A2 [1]: 56 ± 28 SFC/10^6
T cell activation of HLA transgenic mice (SFC/10^6) IFN-γ ELISpot, DR2 [2]: 72 ± 15 SFC/10^6
